Data published in the NIST ThermoML archive (doi:10.1021/je1005533).

Experiment: refractive index (other wavelength) (dimensionless); xn = mol fraction of the nth substance listed
Conditions: 101.3 kPa, Liquid, Wavelength=632.8 nm, Standard Abbe refractometry

CCCCCCCCCCCCCCCC [hexadecane] + COC(=O)OC
Conditions	refractive index
308.19 K, x2 = 0.132	1.4228
308.21 K, x2 = 0	1.427
308.29 K, x2 = 0.397	1.4128
308.35 K, x2 = 0.219	1.4197
308.4 K, x2 = 0.291	1.417
309.24 K, x2 = 0	1.4265
309.25 K, x2 = 0.132	1.4224
309.32 K, x2 = 0.397	1.4123
309.54 K, x2 = 0.291	1.4164
309.66 K, x2 = 0.219	1.4191
310.21 K, x2 = 0	1.4261
310.33 K, x2 = 0.132	1.4219
310.38 K, x2 = 0.397	1.4118
310.83 K, x2 = 0.291	1.4158
311.09 K, x2 = 0.219	1.4185
311.24 K, x2 = 0	1.4256
311.39 K, x2 = 0.132	1.4214
311.42 K, x2 = 0.397	1.4113
312.09 K, x2 = 0.291	1.4153
312.18 K, x2 = 0.6	1.4005
312.2 K, x2 = 0.517	1.4052
312.3 K, x2 = 0	1.4252
312.43 K, x2 = 0.132	1.421
312.46 K, x2 = 0.397	1.4108
312.54 K, x2 = 0.219	1.4179
313.16 K, x2 = 0.517	1.4048
313.32 K, x2 = 0.6	1.3999
313.33 K, x2 = 0.291	1.4147
313.34 K, x2 = 0	1.4248
313.51 K, x2 = 0.132	1.4206
313.53 K, x2 = 0.397	1.4104
313.95 K, x2 = 0.219	1.4173
314.26 K, x2 = 0.517	1.4043
314.44 K, x2 = 0	1.4244
314.44 K, x2 = 0.6	1.3994
314.55 K, x2 = 0.132	1.4201
314.62 K, x2 = 0.397	1.41
314.63 K, x2 = 0.291	1.4142
315.34 K, x2 = 0.517	1.4038
315.5 K, x2 = 0.6	1.3989
315.54 K, x2 = 0	1.4239
315.57 K, x2 = 0.132	1.4197
315.59 K, x2 = 0.219	1.4166
315.71 K, x2 = 0.397	1.4094
315.92 K, x2 = 0.291	1.4136
316.19 K, x2 = 0.689	1.3925
316.42 K, x2 = 0.517	1.4033
316.45 K, x2 = 0.804	1.3827
316.55 K, x2 = 0	1.4235
316.56 K, x2 = 0.6	1.3984
316.64 K, x2 = 0.132	1.4192
316.73 K, x2 = 0.397	1.409
316.86 K, x2 = 0.872	1.3751
317.02 K, x2 = 0.689	1.3921
317.08 K, x2 = 0.219	1.416
317.2 K, x2 = 0.291	1.4131
317.25 K, x2 = 0.804	1.3823
317.51 K, x2 = 0.517	1.4028
317.56 K, x2 = 0	1.4231
317.67 K, x2 = 0.132	1.4188
317.67 K, x2 = 0.6	1.3979
317.74 K, x2 = 0.872	1.3747
317.81 K, x2 = 0.397	1.4085
317.89 K, x2 = 0.689	1.3917
318.06 K, x2 = 0.804	1.3819
318.49 K, x2 = 0.291	1.4125
318.5 K, x2 = 0.219	1.4154
318.55 K, x2 = 0.872	1.3743
318.61 K, x2 = 0	1.4226
318.74 K, x2 = 0.132	1.4183
318.84 K, x2 = 0.689	1.3913
318.89 K, x2 = 0.397	1.408
318.91 K, x2 = 0.804	1.3815
319.4 K, x2 = 0.872	1.3739
319.74 K, x2 = 0.689	1.3909
319.79 K, x2 = 0.804	1.381
320.28 K, x2 = 0.872	1.3735
320.64 K, x2 = 0.804	1.3806
